Results on 28 compounds are retold here after patent publication US8846933B2, “N-link hydroxamic acid derivatives useful as antibacterial agents” (Pfizer Inc., priority 2009, dated 2014).

Each structure is given as a SMILES string.

Experiment [1] deals with Escherichia coli EC-1: VOGEL, mouse virulent. The experiment can be described thus: MIC determination (CLSI), strain EC-1. The note with it: strain EC-1, unit assumed. The format is cell-based. In a few lines: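 The mouse-virulent VOGEL isolate of E. coli, EC-1, served as test organism. Minimum inhibitory concentration was measured by CLSI dilution methodology (M7-A7; M100-S18 standards).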

Experiment [2] deals with Pseudomonas aeruginosa UI-18: Wild-type (PA-7). Nature of the experiment: MIC determination (CLSI), strain PA-7. To be noted: strain PA-7, unit assumed. The format is cell-based. Put shortly:
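Strain tested was P. aeruginosa UI-18, a wild-type isolate labelled PA-7. Minimum inhibitory concentrations followed CLSI dilution methodology for aerobically growing bacteria (M7-A7, M100-S18).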

Setting [3] is: generated in the same manner as in Table 4.

For `COc1ccc(-c2ccc(-c3ccn(CC[C@](C)(C(=O)NO)S(C)(=O)=O)c(=O)c3)cc2)cn1` [Example 310, (2R)-N-hydroxy-4-{4-[4-(6-methoxypyridin-3-yl)phenyl]-2-oxopyridin-1(2H)-yl}-2-methyl-2-(methylsulfonyl)butanamide], the EC-1 (MIC) in experiment [1] is 0.125 µg/mL. Further, the PA-7 (MIC) in experiment [2] came out at 0.5 µg/mL.

`C[C@@](CCn1ccc(-c2ccc(OCC3CCN(C(=O)CO)CC3)cc2)cc1=O)(C(=O)NO)S(C)(=O)=O` [Example 311, (2R)-4-[4-{4-[(1-glycoloylpiperidin-4-yl)methoxy]phenyl}-2-oxopyridin-1(2H)-yl]-N-hydroxy-2-methyl-2-(methylsulfonyl)butanamide]: the EC-1 (MIC) in experiment [1] worked out at 1 µg/mL. The PA-7 (MIC) in experiment [2] turned out to be 4 µg/mL.

`COc1cc(OCCCO)ccc1-c1ccn(CCC(C)(C(=O)NO)S(C)(=O)=O)c(=O)c1` (centres unmarked) [Example 253, N-hydroxy-4-{4-[4-(3-hydroxypropoxy)-2-methoxyphenyl]-2-oxopyridin-1(2H)-yl}-2-methyl-2-(methylsulfonyl)butanamide] returned an EC-1 (MIC) in experiment [1] of 16 µg/mL. Besides, the PA-7 (MIC) in experiment [2] was greater than 64 µg/mL.

In experiment [1], `CC(CCn1ccc(-c2cccc(F)c2)cc1=O)(C(=O)NO)S(C)(=O)=O` (centres unmarked) [Example 187, 4-[4-(3-fluorophenyl)-2-oxopyridin-1(2H)-yl]-N-hydroxy-2-methyl-2-(methylsulfonyl)butanamide] displayed an EC-1 (MIC) of 8 µg/mL. In experiment [2], this compound came in with a PA-7 (MIC) of 2 µg/mL.

In experiment [1], `Cc1cccc(-c2ccn(CCC(C)(C(=O)NO)S(C)(=O)=O)c(=O)c2)c1C` (centres unmarked) [Example 257, 4-[4-(2,3-dimethylphenyl)-2-oxopyridin-1(2H)-yl]-N-hydroxy-2-methyl-2-(methylsulfonyl)butanamide] gave an EC-1 (MIC) of 4 µg/mL. Further, in experiment [2], the PA-7 (MIC) was 2 µg/mL.

The compound `CC(CCn1ccc(-c2cc(O)ccc2Cl)cc1=O)(C(=O)NO)S(C)(=O)=O` (centres unmarked) [Example 204, 4-[4-(2-chloro-5-hydroxyphenyl)-2-oxopyridin-1(2H)-yl]-N-hydroxy-2-methyl-2-(methylsulfonyl)butanamide] gave an EC-1 (MIC) in experiment [1] of 64 µg/mL. This compound also yielded a PA-7 (MIC) in experiment [2] greater than 64 µg/mL.

On to `CC(CCn1ccc(-c2cc3nccc(Cl)c3s2)cc1=O)(C(=O)NO)S(C)(=O)=O` (centres unmarked) [Example 128, 4-[4-(7-chlorothieno[3,2-b]pyridin-2-yl)-2-oxopyridin-1(2H)-yl]-N-hydroxy-2-methyl-2-(methylsulfonyl)butanamide], for which the EC-1 (MIC) in experiment [1] (setting [3]) stood at 32 µg/mL. The PA-7 (MIC) in experiment [2] (setting [3]) was 64 µg/mL.

With `C[C@@](CCn1ccc(-c2ccc3cc(N)ncc3c2)cc1=O)(C(=O)NO)S(C)(=O)=O` [Example 473], the EC-1 (MIC) in experiment [1] came to 16 µg/mL. Also, the PA-7 (MIC) in experiment [2] amounted to 16 µg/mL.

For `CN(C)c1ncc(-c2ccc(-c3ccn(CC[C@](C)(C(=O)NO)S(C)(=O)=O)c(=O)c3)cc2)cn1` [Example 409, (2R)-4-[4-{4-[2-(dimethylamino)pyrimidin-5-yl]phenyl}-2-oxopyridin-1(2H)-yl]-N-hydroxy-2-methyl-2-(methylsulfonyl)butanamide], the EC-1 (MIC) in experiment [1] is 0.5 µg/mL. Further, in experiment [2], the PA-7 (MIC) worked out at 2 µg/mL.

`CC(CCn1ccc(-c2ccc(OCCCN3CCOCC3)cc2)cc1=O)(C(=O)NO)S(C)(=O)=O` (centres unmarked) [Example 71, N-hydroxy-2-methyl-2-(methylsulfonyl)-4-{4-[4-(3-morpholin-4-ylpropoxy)phenyl]-2-oxopyridin-1(2H)-yl}butanamide]: the EC-1 (MIC) in experiment [1] (setting [3]) was determined as 2 µg/mL. Further, the PA-7 (MIC) in experiment [2] (setting [3]) was found to be 4 µg/mL.

`CC(CCn1ccc(-c2ccoc2)cc1=O)(C(=O)NO)S(C)(=O)=O` (centres unmarked) [Example 118, 4-[4-(3-furyl)-2-oxopyridin-1(2H)-yl]-N-hydroxy-2-methyl-2-(methylsulfonyl)butanamide] returned an EC-1 (MIC) in experiment [1] (setting [3]) greater than 64 µg/mL. The compound further displayed a PA-7 (MIC) in experiment [2] (setting [3]) of 64 µg/mL.

As to `COc1cc(-c2ccn(CCC(C)(C(=O)NO)S(C)(=O)=O)c(=O)c2)cc(OC)c1OC` (centres unmarked) [Example 212, N-hydroxy-2-methyl-2-(methylsulfonyl)-4-[2-oxo-4-(3,4,5-trimethoxyphenyl)pyridin-1(2H)-yl]butanamide], in experiment [1], the EC-1 (MIC) is greater than 64 µg/mL. This compound also came in with a PA-7 (MIC) in experiment [2] greater than 64 µg/mL.

On to `CCOc1ccc2cc(-c3ccn(CC[C@](C)(C(=O)NO)S(C)(=O)=O)c(=O)c3)ccc2n1` [Example 385, (2R)-4-[4-(2-ethoxyquinolin-6-yl)-2-oxopyridin-1(2H)-yl]-N-hydroxy-2-methyl-2-(methylsulfonyl)butanamide], for which the EC-1 (MIC) in experiment [1] is 0.06 µg/mL. In experiment [2], this compound yielded a PA-7 (MIC) of 0.5 µg/mL.

In experiment [1], `CCOc1ncccc1-c1ccn(CCC(C)(C(=O)NO)S(C)(=O)=O)c(=O)c1` (centres unmarked) [Example 205, 4-(2-ethoxy-2′-oxo-3,4′-bipyridin-1′(2′H)-yl)-N-hydroxy-2-methyl-2-(methylsulfonyl)butanamide] returned an EC-1 (MIC) greater than 64 µg/mL. The PA-7 (MIC) in experiment [2] is greater than 64 µg/mL.

On to `CC(CCn1ccc(-c2ccc(CC#N)cc2)cc1=O)(C(=O)NO)S(C)(=O)=O` (centres unmarked) [Example 129, 4-{4-[4-(cyanomethyl)phenyl]-2-oxopyridin-1(2H)-yl}-N-hydroxy-2-methyl-2-(methylsulfonyl)butanamide], for which the EC-1 (MIC) in experiment [1] (setting [3]) was 2 µg/mL. Moreover, the PA-7 (MIC) in experiment [2] (setting [3]) was 32 µg/mL.

`C[C@@](CCn1ccc(-c2ccc3cc(N4CCC(O)CC4)ccc3c2)cc1=O)(C(=O)NO)S(C)(=O)=O` [Example 381, (2R)-N-hydroxy-4-{4-[6-(4-hydroxypiperidin-1-yl)-2-naphthyl]-2-oxopyridin-1(2H)-yl}-2-methyl-2-(methylsulfonyl)butanamide] displayed an EC-1 (MIC) in experiment [1] of 1 µg/mL. This compound came in with a PA-7 (MIC) in experiment [2] of 16 µg/mL.

As to `CC(CCn1ccc(-c2ccc(OCCCN3CCSCC3)cc2)cc1=O)(C(=O)NO)S(C)(=O)=O` (centres unmarked) [Example 81, N-hydroxy-2-methyl-2-(methylsulfonyl)-4-{2-oxo-4-[4-(3-thiomorpholin-4-ylpropoxy)phenyl]pyridin-1(2H)-yl}butanamide], the EC-1 (MIC) in experiment [1] (setting [3]) worked out at 2 µg/mL. In experiment [2] (setting [3]), this compound gave a PA-7 (MIC) of 4 µg/mL.

Compound `Cc1ccc2ccc(-c3ccn(CCC(C)(C(=O)NO)S(C)(=O)=O)c(=O)c3)cc2n1` (centres unmarked) [Example 305, N-hydroxy-2-methyl-4-[4-(2-methylquinolin-7-yl)-2-oxopyridin-1(2H)-yl]-2-(methylsulfonyl)butanamide] showed an EC-1 (MIC) in experiment [1] of 16 µg/mL. The compound also returned a PA-7 (MIC) in experiment [2] greater than 64 µg/mL.

`CC(CCn1ccc(-c2ccc(S(N)(=O)=O)cc2)cc1=O)(C(=O)NO)S(C)(=O)=O` (centres unmarked) [Example 230, 4-{4-[4-(aminosulfonyl)phenyl]-2-oxopyridin-1(2H)-yl}-N-hydroxy-2-methyl-2-(methylsulfonyl)butanamide] registered an EC-1 (MIC) in experiment [1] of 64 µg/mL. For the same compound, the PA-7 (MIC) in experiment [2] was greater than 64 µg/mL.

As to `CC(CCn1ccc(-c2ccc(O)c(F)c2)cc1=O)(C(=O)NO)S(C)(=O)=O` (centres unmarked) [Example 70, 4-[4-(3-fluoro-4-hydroxyphenyl)-2-oxopyridin-1(2H)-yl]-N-hydroxy-2-methyl-2-(methylsulfonyl)butanamide], the EC-1 (MIC) in experiment [1] (setting [3]) is greater than 64 µg/mL. The compound also yielded a PA-7 (MIC) in experiment [2] (setting [3]) greater than 64 µg/mL.

`COc1ccc(-c2ccn(CC[C@](C)(C(=O)NO)S(C)(=O)=O)c(=O)c2)c(Cl)c1Cl` [Example 452, (2R)-4-[4-(2,3-dichloro-4-methoxyphenyl)-2-oxopyridin-1(2H)-yl]-N-hydroxy-2-methyl-2-(methylsulfonyl)butanamide] had an EC-1 (MIC) in experiment [1] of 4 µg/mL. Moreover, in experiment [2], the PA-7 (MIC) was determined as 2 µg/mL.

With `Cc1cnc(-c2ccc(-c3ccn(CC[C@](C)(C(=O)NO)S(C)(=O)=O)c(=O)c3)cc2)cn1` [Example 457, (2R)-N-hydroxy-2-methyl-4-{4-[4-(5-methylpyrazin-2-yl)phenyl]-2-oxopyridin-1(2H)-yl}-2-(methylsulfonyl)butanamide], the EC-1 (MIC) in experiment [1] stood at 0.5 µg/mL. This compound also registered a PA-7 (MIC) in experiment [2] of 2 µg/mL.

As for `Cc1ccnc2ccc(-c3ccn(CCC(C)(C(=O)NO)S(C)(=O)=O)c(=O)c3)cc12` (centres unmarked) [Example 302, N-hydroxy-2-methyl-4-[4-(4-methylquinolin-6-yl)-2-oxopyridin-1(2H)-yl]-2-(methylsulfonyl)butanamide], in experiment [1], the EC-1 (MIC) stood at 64 µg/mL. Also, the PA-7 (MIC) in experiment [2] turned out to be 16 µg/mL.

The compound `CC(CCn1ccc(-c2ccc([N+](=O)[O-])cc2)cc1=O)(C(=O)NO)S(C)(=O)=O` (centres unmarked) [Example 101, N-hydroxy-2-methyl-2-(methylsulfonyl)-4-[4-(4-nitrophenyl)-2-oxopyridin-1(2H)-yl]butanamide] yielded an EC-1 (MIC) in experiment [1] (setting [3]) of 8 µg/mL. In experiment [2] (setting [3]), this compound came in with a PA-7 (MIC) of 4 µg/mL.

In the case of `CNC(=O)c1ccc(-c2ccn(CCC(C)(C(=O)NO)S(C)(=O)=O)c(=O)c2)cc1` (centres unmarked) [Example 188, 4-{1-[4-(hydroxyamino)-3-methyl-3-(methylsulfonyl)-4-oxobutyl]-2-oxo-1,2-dihydropyridin-4-yl}-N-methylbenzamide], the EC-1 (MIC) in experiment [1] is greater than 64 µg/mL. Also, the PA-7 (MIC) in experiment [2] is greater than 64 µg/mL.

Regarding `CC(C)(O)Cc1cccc(-c2ccn(CCC(C)(C(=O)NO)S(C)(=O)=O)c(=O)c2)c1` (centres unmarked) [Example 262, N-hydroxy-4-{4-[3-(2-hydroxy-2-methylpropyl)phenyl]-2-oxopyridin-1(2H)-yl}-2-methyl-2-(methylsulfonyl)butanamide], in experiment [1], the EC-1 (MIC) was 64 µg/mL. This compound yielded a PA-7 (MIC) in experiment [2] greater than 64 µg/mL.

For `Cn1ccnc1-c1cccc(-c2ccn(CCC(C)(C(=O)NO)S(C)(=O)=O)c(=O)c2)c1` (centres unmarked) [Example 172, N-hydroxy-2-methyl-4-{4-[3-(1-methyl-1H-imidazol-2-yl)phenyl]-2-oxopyridin-1(2H)-yl}-2-(methylsulfonyl)butanamide], the EC-1 (MIC) in experiment [1] (setting [3]) is greater than 64 µg/mL. This compound yielded a PA-7 (MIC) in experiment [2] (setting [3]) greater than 64 µg/mL.

As to `C[C@@](CCn1ccc(-c2ccc(OCCN3CCC(O)CC3)c(Cl)c2Cl)cc1=O)(C(=O)NO)S(C)(=O)=O` [Example 303, (2R)-4-[4-{2,3-dichloro-4-[2-(4-hydroxypiperidin-1-yl)ethoxy]phenyl}-2-oxopyridin-1(2H)-yl]-N-hydroxy-2-methyl-2-(methylsulfonyl)butanamide], in experiment [1], the EC-1 (MIC) came to 32 µg/mL. This compound displayed a PA-7 (MIC) in experiment [2] of 16 µg/mL.
